The values below come from PubChem BioAssay (NCI).

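1) Cells in 96-well plates. 2) Compound, 48 h, 5 concentrations. 3) Linear interpolation between surrounding doses. 4) Unreached endpoint = highest concentration. At the TGI there is no net growth.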

Test systems include HCT-15 colon; M14 melanoma; CAKI-1 renal; HCT-116 colon; NCI-H226 lung; SNB-75 CNS; U251 CNS; KM12 colon; SR leukemia; A498 renal.
Holding throughout (test): inhibition of tumour cell growth, NCI panel, 48 h

With `Cc1c2cc[n+](C)c(C)c2cc2c1[nH]c1ccccc12`, the TGI was more than 100 µM in the experiment on HCT-15 colon; more than 100 µM in the experiment on M14 melanoma; more than 91.9 µM with CAKI-1 renal; more than 86.1 µM with HCT-116 colon; 10.8 µM in the experiment on NCI-H226 lung; 6.98 µM in the experiment on SNB-75 CNS. Also, the TGI is 8.41 µM with U251 CNS, 21.1 µM in the experiment on KM12 colon, more than 100 µM with SR leukemia and more than 100 µM in the experiment with A498 renal.
